Measured values published in US20160213007A1, “Methods and Compositions to Elicit Resistance to Fungal Disease in Plants and Plant Parts” (ECOFLORA AGRO S.A.S., priority 2013, published 2016).

System: Botrytis cinerea
Assay: Growth inhibition of Botrytis cinerea by acetophenones

O=C(CO)c1ccccc1 [2-hydroxy acetophenone]
inhibition of the growth of the fungus Botrytis cinerea: can inhibit the growth
